Data published in US8501910B2, “Protein sweetener” (Wisconsin Alumni Research Foundation, priority 2007, dated 2013).

Test system: humans
Assay: Human taste panel scoring sweetness on a magnitude labeled scale
Type: in vivo
Details: for sweetness potency: FIG. 1, human taste panel, varied concentrations diluted in water, compared for the weight being tested
From the text: To test the sweetness potency of our peptides we tested human perception of sweetness against known controls using varied concentrations of the protein (or other substance) being diluted in water. In the taste panel, humans were requested to score the sweetness sensations of the stimuli with a magnitude labeled scale in accordance with the techniques of B. Green et al., 21 Chemical Senses 323 (1996) (e.g. barely detectable; weak; moderate; strong; very strong; strongest imaginable).
We first gave those testers a sample of pure water with 2-10% sucrose as a calibration exercise two hours before protein testing. After the sucrose testing, they rinsed their mouth out thoroughly. The normal protocol included applying about 125 μI of the substance being tasted to the tongue, with the tested material kept in the mouth for about a minute.

| Substance | sweetness potency | sweetness potency (individual observer) (tested by one individual observer, not a complete panel) |
| --- | --- | --- |
| SEQ ID NO. 8: Brazzein variant with Gly Pro inserted at the N terminus of wild type Brazzein (GPDKCKKVYENYPVSKCQLANQCNYPCKLNKHARSGECFYDEKRNLQCICDYCEY) | significantly higher sweetness potency than either sucrose or wild type Brazzein | – |
| SEQ ID NO. 6: Brazzein variant Y53H: tyrosine at position 53 of SEQ ID NO: 1 replaced (DKCKKVYENYPVSKCQLANQCNYDCKLKKHARSGECFYDEKRNLQCICDYCEH) | significantly higher sweetness potency than sucrose | – |
| SEQ ID NO. 5: Brazzein variant Y53W: tyrosine at position 53 of SEQ ID NO: 1 replaced (DKCKKVYENYPVSKCQLANQCNYDCKLKKHARSGECFYDEKRNLQCICDYCEW) | significantly higher sweetness potency than either sucrose or wild type Brazzein | – |
| SEQ ID NO. 7: Brazzein variant with Ile Ile inserted at the N terminus of wild type Brazzein (IIDKCKKVYENYPVSKCQLANQCNYDCKLNKHARSGECFYDEKRNLQCICDYCEY) | significantly higher sweetness potency than either sucrose or wild type Brazzein | – |
| SEQ ID NO. 4: Brazzein variant with tyrosine at position 53 of SEQ ID NO: 1 replaced by another amino acid (probably Phe) (DKCKKVYENYPVSKCQLANQCNYDCKLKKHARSGECFYDEKRNLQCICDYCEF) | – | results similar to those for SEQ ID NO.5 |
